Drawing on patent US8012956B2, “Tropane compounds” (Exelixis, Inc., priority 2007, dated 2011), this text covers IC50 for 28 compounds.

Some results are limits rather than exact numbers.

A word on the IC50: it is the concentration at which inhibition is half-maximal. Low values mean greater potency in that assay, high ones weaker potency in that assay.

The target in the assay is HSP90 (Homo sapiens, UniProt P07900). In words: HSP90 inhibition (HSP90 IC50). It is filed as biochemical.
With `CCC(=O)c1ccc(N2[C@@H]3CC[C@H]2C[C@@H](NC(=O)c2ccc(C(N)=O)c(NCC4CC4)c2)C3)nc1` [2-[(cyclopropylmethyl)amino]-N4-[8-(5-propanoylpyridin-2-yl)-8-azabicyclo[3.2.1]oct-3-endo-yl]benzene-1,4-dicarboxamide], the IC50 was < 500 nM.

In turn, `COc1cccc(C(=O)N[C@H]2C[C@H]3CC[C@@H](C2)N3c2ccc(C(=O)NN)cn2)c1C` [N-{8-[5-(hydrazinocarbonyl)pyridin-2-yl]-8-azabicyclo[3.2.1]oct-3-endo-yl}-2-methyl-3-(methyloxy)benzamide] had an IC50 of 2000 to 10000 nM.

The compound `COc1cccc(C(=O)N[C@H]2C[C@H]3CC[C@@H](C2)N3c2ccc(C(N)=O)cn2)c1CCCO` [6-[3-endo-({[2-(3-hydroxypropyl)-3-(methyloxy)phenyl]carbonyl}amino)-8-azabicyclo[3.2.1]oct-8-yl]pyridine-3-carboxamide] displayed an IC50 of 1000 to 2000 nM.

In the case of `COc1cccc(C(=O)NC2CC3CCC(C2)N3c2ccc(C(=O)N[C@@H]3CCN(Cc4ccccc4)C3)cn2)c1C` (stereo partly drawn) [6-[3-endo-({[2-methyl-3-(methyloxy)phenyl]carbonyl}amino)-8-azabicyclo[3.2.1]oct-8-yl]-N-[(3R)-1-(phenylmethyl)pyrrolidin-3-yl]pyridine-3-carboxamide], the IC50 was < 500 nM.

In turn, `COc1cccc(C(=O)NC2CC3CCC(C2)N3c2ccc(C(=O)N[C@H]3CCC[C@@H]3OCc3ccccc3)cn2)c1C` (stereo partly drawn) [6-[3-endo-({[2-methyl-3-(methyloxy)phenyl]carbonyl}amino)-8-azabicyclo[3.2.1]oct-8-yl]-N-{(1S,2S)-2-[(phenylmethyl)oxy]cyclopentyl}pyridine-3-carboxamide] returned an IC50 of 2000 to 10000 nM.

Take `COc1cccc(C(=O)N[C@H]2C[C@H]3CC[C@@H](C2)N3c2ccc(C(=O)NCc3ccc4c(c3)OCO4)cn2)c1C` [N-(1,3-benzodioxol-5-ylmethyl)-6-[3-endo-({[2-methyl-3-(methyloxy)phenyl]carbonyl}amino)-8-azabicyclo[3.2.1]oct-8-yl]pyridine-3-carboxamide]: the IC50 was < 500 nM.

As to `COc1cccc(C(=O)NC2CC3CCC(C2)N3c2ccc(C(=O)N[C@H]3CCN(C)C3)cn2)c1C` (stereo partly drawn) [6-[3-endo-({[2-methyl-3-(methyloxy)phenyl]carbonyl}amino)-8-azabicyclo[3.2.1]oct-8-yl]-N-[(3S)-1-methylpyrrolidin-3-yl]pyridine-3-carboxamide], the IC50 was 1000 to 2000 nM.

Regarding “N4-(8-{5-[({(1S)- 1-[4-(4- methylpiperazin-1- yl)phenyl]ethyl}amino)carbonyl]pyridin- 2-yl}-8-azabicyclo[3.2.1]oct-3- endo-yl)-2-(phenylamino)benzene- 1,4-dicarboxamide”, the IC50 is < 500 nM.

On to `C[C@H](NC(=O)c1ccc(N2C3CCC2CC(NC(=O)c2ccc(C(N)=O)c(NCC4CC4)c2)C3)nc1)c1ccc(N2CCN(C)CC2)cc1` (stereo partly drawn) [2-[(cyclopropylmethyl)amino]-N4-(8-{5-[({(1S)-1-[4-(4-methylpiperazin-1-yl)phenyl]ethyl}amino)carbonyl]pyridin-2-yl}-8-azabicyclo[3.2.1]oct-3-endo-yl)benzene-1,4-dicarboxamide], for which the IC50 is < 500 nM.

The compound `COc1cc(CNC(=O)c2ccc(N3[C@@H]4CC[C@H]3C[C@@H](NC(=O)c3cccc(OC)c3C)C4)nc2)ccc1F` [N-{[4-fluoro-3-(methyloxy)phenyl]methyl}-6-[3-endo-({[2-methyl-3-(methyloxy)phenyl]carbonyl}amino)-8-azabicyclo[3.2.1]oct-8-yl]pyridine-3-carboxamide] returned an IC50 of 500 to 999 nM.

In turn, `COc1cccc(C(=O)N[C@H]2C[C@H]3CC[C@@H](C2)N3c2ccc(C(=O)NCCC(C)(C)C)cn2)c1C` [N-(3,3-dimethylbutyl)-6-[3-endo-({[2-methyl-3-(methyloxy)phenyl]carbonyl}amino)-8-azabicyclo[3.2.1]oct-8-yl]pyridine-3-carboxamide] had an IC50 of 2000 to 10000 nM.

Turning to `Cc1cc(C(=O)N[C@H]2C[C@H]3CC[C@@H](C2)N3c2ccc(C(=O)N[C@H]3CCN(C(C)C)C3)cn2)c(C)cc1C(N)=O` [2,5-dimethyl-N-{8-[5-({[(3S)-1-(1-methylethyl)pyrrolidin-3-yl]amino}carbonyl)pyridin-2-yl]-8-azabicyclo[3.2.1]oct-3-endo-yl}benzene-1,4-dicarboxamide], the IC50 was < 500 nM.

For `CC(=O)c1ccc(N2C3CCC2CC(NC(=O)c2ccc(C(N)=O)c(N[C@H]4CC[C@H](O)CC4)c2)C3)nc1` (stereo partly drawn) [N4-[8-(5-acetylpyridin-2-yl)-8-azabicyclo[3.2.1]oct-3-endo-yl]-2-[(trans-4-hydroxycyclohexyl)amino]benzene-1,4-dicarboxamide], the IC50 was < 500 nM.

In the case of `COc1cccc(C(=O)N[C@H]2C[C@H]3CC[C@@H](C2)N3c2ccc(C(N)=O)cn2)c1F` [6-[3-endo-({[2-fluoro-3-(methyloxy)phenyl]carbonyl}amino)-8-azabicyclo[3.2.1]oct-8-yl]pyridine-3-carboxamide], the IC50 fell in the range of 2000 to 10000 nM.

As for `CCC(Nc1cc(C(=O)N[C@H]2C[C@H]3CC[C@@H](C2)N3c2ccc(C(=O)C3CC3)cn2)c(C)cc1C(N)=O)C(C)C` (stereo partly drawn) [N-{8-[5-(cyclopropylcarbonyl)pyridin-2-yl]-8-azabicyclo[3.2.1]oct-3-endo-yl}-5-[(1-ethyl-2-methylpropyl)amino]-2-methylbenzene-1,4-dicarboxamide], the IC50 was < 500 nM.

With “2-((cyclopropylmethyl)amino]-N4-{8- [5-({[(3R)-1-(1-methylethyl)pyrrolidin- 3-yl]amino}carbonyl)pyridin-2-yl]-8- azabicyclo[3.2.1]oct-3-endo- yl}benzene-1,4-dicarboxamide”, the IC50 is < 500 nM.

Consider `C[C@H](NC(=O)c1ccc(N2C3CCC2CC(NC(=O)c2ccc(C(N)=O)c(NCCS(C)(=O)=O)c2)C3)nc1)c1ccc(N2CCN(C)CC2)cc1` (stereo partly drawn) [N4-(8-{5-[({(1S)-1-[4-(4-methylpiperazin-1-yl)phenyl]ethyl}amino)carbonyl]pyridin-2-yl}-8-azabicyclo[3.2.1]oct-3-endo-yl)-2-{[2-(methylsulfonyl)ethyl]amino}benzene-1,4-dicarboxamide], for which the IC50 is < 500 nM.

As for `C#CCNC(=O)c1ccc(N2[C@@H]3CC[C@H]2C[C@@H](NC(=O)c2cccc(OC)c2C)C3)nc1` [6-[3-endo-({[2-methyl-3-(methyloxy)phenyl)carbonyl}amino)-8-azabicyclo(3.2.1]oct-8-yl]-N-prop-2-yn-1-ylpyridine-3-carboxamide], the IC50 was in the range of 1000 to 2000 nM.

Take `COc1cccc(C(=O)N[C@H]2C[C@H]3CC[C@@H](C2)N3c2ccc(C(=O)NCc3c(F)cccc3Cl)cn2)c1C` [N-[(2-chloro-6-fluorophenyl)methyl]-6-[3-endo-({[2-methyl-3-(methyloxy)phenyl]carbonyl}amino)-8-azabicyclo[3.2.1]oct-8-yl]pyridine-3-carboxamide]: the IC50 was < 500 nM.

`COc1ccc(C(=O)N[C@H]2C[C@H]3CC[C@@H](C2)N3c2ccc(C(=O)NCc3ccccc3)cn2)c(C)c1OC` [6-[3-endo-({[2-methyl-3,4-bis(methyloxy)phenyl]carbonyl}amino)-8-azabicyclo[3.2.1]oct-8-yl]-N-(phenylmethyl)pyridine-3-carboxamide] displayed an IC50 of 2000 to 10000 nM.

With `COc1cccc(C(=O)NC2CC3CCC(C2)N3c2ccc(C(=O)N[C@H]3CCCC[C@@H]3O)cn2)c1C` (stereo partly drawn) [N-[(1S,2S)-2-hydroxycyclohexyl]-6-[3-endo-({[2-methyl-3-(methyloxy)phenyl]carbonyl}amino)-8-azabicyclo[3.2.1]oct-8-yl]pyridlne-3-carboxamide], the IC50 lay within 2000 to 10000 nM.

As for `CCC(CC)Nc1cc(C(=O)NC2CC3CCC(C2)N3c2ccc(C(=O)NCC3CCCN3CC)cn2)c(C)cc1C(N)=O` (stereo not drawn) [5-[(1-ethylpropyl)amino]-N-{8-[5-({[(1-ethylpyrrolidin-2-yl)methyl]amino}carbonyl)pyridin-2-yl]-8-azabicyclo[3.2.1]oct-3-endo-yl}-2-methylbenzene-1,4-dicarboxamide], the IC50 is < 500 nM.

`CC(=O)c1ccc(N2[C@@H]3CC[C@H]2C[C@@H](NC(=O)c2ccc(C(N)=O)c(NC4CCOCC4)c2)C3)nc1` [N4-[8-(5-acetylpyridin-2-yl)-8-azabicyclo[3.2.1]oct-3-endo-yl]-2-(tetrahydro-2H-pyran-4-ylamino)benzene-1,4-dicarboxamide]: the IC50 was < 500 nM.

As for `Cc1cc(C(N)=O)c(NC(C)C2CC2)cc1C(=O)N[C@H]1C[C@H]2CC[C@@H](C1)N2c1ccc(C(=O)C2CC2)cn1` (stereo partly drawn) [N-{8-[5-(cyclopropylcarbonyl)pyridin-2-yl]-8-azabicycbo[3.2.1]oct-3-endo-yl}-5-[(l-cyclopropylethyl)amino]-2-methylbenzene-1,4-dicarboxamide], the IC50 was < 500 nM.

For the compound `CCN(CC)CCNC(=O)c1ccc(N2[C@@H]3CC[C@H]2C[C@@H](NC(=O)c2cccc(OC)c2C)C3)nc1` [N-[2-(diethylamino)ethyl]-6-[3-endo-({[2-methyl-3-(methyloxy)phenyl]carbonyl}amino)-8-azabicyclo[3.2.1]oct-8-yl]pyridine-3-carboxamide], the IC50 fell in the range of 500 to 999 nM.

Take `CCC(CC)Nc1cc(C(=O)NC2CC3CCC(C2)N3c2ccc(C(=O)N[C@@H]3CCNC3)cn2)ccc1C(N)=O` (stereo partly drawn) [2-[(1-ethylpropyl)amino]-N4-[8-(5-{[(3R)-pyrrolidin-3-ylamino]carbonyl}pyridin-2-yl)-8-azabicyclo[3.2.1]oct-3-endo-yl]benzene-1,4-dicarboxamide]: the IC50 is < 500 nM.

As for `COc1ccc(CNC(=O)c2ccc(N3[C@@H]4CC[C@H]3C[C@@H](NC(=O)c3cccc(OC)c3C)C4)nc2)c(F)c1` [N-{[2-fluoro-4-(methyloxy)phenyl]methyl}-6-[3-endo-({[2-methyl-3-(methyloxy)phenyl]carbonyl}amino)-8-azabicyclo[3.2.1]oct-8-yl]pyridine-3-carboxamide], the IC50 was < 500 nM.

In the case of `CCOCCCNC(=O)c1ccc(N2[C@@H]3CC[C@H]2C[C@@H](NC(=O)c2cccc(OC)c2C)C3)nc1` [N-[3-(ethyloxy)propyl]-6-[3-endo-({[2-methyl-3-(methyloxy)phenyl]carbonyl}amino)-8-azabicyclo[3.2.1]oct-8-yl]pyridine-3-carboxamide], the half-maximal inhibitory concentration (IC50) lay within 1000 to 2000 nM.
